From the supplement of paper PMC10307832

What was measured:
Experiment in all cases: relative viability (nuclei count vs DMSO), 5 days (fraction); higher = more cells survive
[1] = compound: COCC[n+]1c2c(n(Cc3cnccn3)c1C)C(=O)c1ccccc1C2=O [YM155] + O=C(c1cc(Cc2n[nH]c(=O)c3ccccc23)ccc1F)N1CCN(C(=O)C2CC2)CC1 [Olaparib] (partner 8 µM)
How it was run: (§1)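 Relative viability was taken as the ratio of nuclei in treated wells to nuclei in vehicle wells. Lung cancer cell lines in 1536-well plates received compounds by pin tool one day after seeding, either one drug alone or a fixed anchor-drug dose plus five library-drug doses (not always all listed) in √10 steps. Nuclei were counted on 4× images after 5 days of treatment, and values are medians of duplicate plates.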

[2] = compound: CC(C)(C)c1cc(NC(=O)Nc2ccc(-c3cn4c(n3)sc3cc(OCCN5CCOCC5)ccc34)cc2)no1 [Quizartinib] + CC(=O)Nc1cccc(-n2c(=O)n(C3CC3)c(=O)c3c(Nc4ccc(I)cc4F)n(C)c(=O)c(C)c32)c1 [Trametinib] (partner 0.02 µM)
How it was run: as §1

[3] = compound: COCC[n+]1c2c(n(Cc3cnccn3)c1C)C(=O)c1ccccc1C2=O [YM155] + CS(=O)(=O)N1CCN(Cc2cc3nc(-c4cccc5[nH]ncc45)nc(N4CCOCC4)c3s2)CC1 [Pictilisib] (partner 1 µM)
How it was run: as §1

[4] = compound: CC(C)(C)c1cc(NC(=O)Nc2ccc(-c3cn4c(n3)sc3cc(OCCN5CCOCC5)ccc34)cc2)no1 [Quizartinib] + CCNC(=O)c1noc(-c2cc(C(C)C)c(O)cc2O)c1-c1ccc(CN2CCOCC2)cc1 [Luminespib] (partner 0.01 µM)
How it was run: as §1

| Cell Line | relative viability ([1]; first compound 0.002 µM) | relative viability ([1]; first compound 0.006325 µM) | relative viability ([1]; first compound 0.02 µM) | relative viability ([1]; first compound 0.06325 µM) | relative viability ([2]; first compound 0.003162 µM) | relative viability ([2]; first compound 0.01 µM) | relative viability ([2]; first compound 0.03162 µM) | relative viability ([2]; first compound 0.1 µM) | relative viability ([3]; first compound 0.002 µM) | relative viability ([3]; first compound 0.006325 µM) | relative viability ([3]; first compound 0.02 µM) | relative viability ([3]; first compound 0.06325 µM) | relative viability ([4]; first compound 0.001 µM) | relative viability ([4]; first compound 0.003162 µM) | relative viability ([4]; first compound 0.01 µM) | relative viability ([4]; first compound 0.03162 µM) | relative viability ([4]; first compound 0.1 µM) | relative viability ([2]; first compound 0.001 µM) |
| --- | --- | --- | --- | --- | --- | --- | --- | --- | --- | --- | --- | --- | --- | --- | --- | --- | --- | --- |
| ChaGo-K-1 | 0.364 | 0.38 | 0.43 | 0.385 | 0.881 | 0.889 | 0.9 | 0.865 | 0.671 | 0.65 | 0.63 | 0.718 | 0.522 | 0.635 | 0.682 | 0.625 | 0.601 | – |
| NCI-H441 | 0.597 | 0.524 | 0.518 | 0.299 | 0.563 | 0.45 | 0.368 | 0.456 | 0.539 | 0.527 | 0.47 | 0.381 | 0.352 | 0.369 | 0.339 | – | 0.362 | 0.35 |
